Patent US4096173A, “Chlorinated 1-aminoindane N-methyl transferase inhibitors” (Eli Lilly and Company, priority 1977, dated 1978)
Counter-ions that a name gives are not always drawn. Like-named read-outs stand apart in the source and are kept apart here.

What was measured:
catechol amine uptake = settings: comparison stated in the literature; cited from earlier work
[1] = biological target: T1, NMT from rabbit adrenals (norephineprine N-methyl transferase, PNMT) (Oryctolagus cuniculus, UniProt G1TT82); assay: In vitro inhibition of N-methyl transferase (NMT) from rabbit adrenals; assay type: biochemical
T1 construct: NMT from rabbit adrenals; from tissue; host or cells: rabbit adrenals
T1 sequence (G1TT82 1-286): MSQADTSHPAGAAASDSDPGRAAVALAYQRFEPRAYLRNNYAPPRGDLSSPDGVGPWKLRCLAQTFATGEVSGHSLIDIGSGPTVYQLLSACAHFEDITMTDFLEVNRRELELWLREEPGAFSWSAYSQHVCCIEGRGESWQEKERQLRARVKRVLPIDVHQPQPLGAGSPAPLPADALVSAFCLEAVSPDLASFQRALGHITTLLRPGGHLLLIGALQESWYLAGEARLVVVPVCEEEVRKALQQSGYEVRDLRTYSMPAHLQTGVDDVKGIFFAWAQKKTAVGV
Description: The compounds of this invention, either in the form of the free base, or as a pharmaceutically-acceptable acid addition salt thereof, are enzyme inhibitors. In particular, as previously stated, they are inhibitors of norephineprine N-methyl transferase [PNMT or phenethanolamine N-methyl transferase--see Axelod, J. Bio, Chem., 237, 1657 (1962)]. Compounds which inhibit the conversion of norephineprine to […], are capable of lowering a high […]-norephineprine ratio in mammals, a physiological condition frequently associated with essential hypertension. The compounds of this invention are thus capable of ameliorating the […]-norephineprine imbalance in essential hypertension, an important aspect of the treatment of this disease state. The effectiveness of the compounds as N-methyl transferase inhibitors has been measured in vitro using NMT from rabbit adrenals. […] The negative reciprocal logarhithm (pI50) of this number was also calculated as a useful index. Table 1, which follows, summarizes the information thus obtained; i.e., the determination of enzyme inhibition activity for the compounds of this invention.

[2] = read-out: pI50 (negative reciprocal logarhithm of the 50 percent inhibitory concentration) (converted)
[3] = series of decreasing inhibitor concentrations from 1 × 10^-4 M, read-out: 50 Inhibitory Concentration (concentration at which 50 percent inhibition of NMT is obtained)

Row | Compound | inhibition of catechol amine uptake, compared with 1-aminoindane (catechol amine uptake) | IC50 [1, 2] [µM] | IC50 [1, 3] [µM]
1 | NC1Cc2ccccc2C1 [2-aminoindane] | better inhibitor of catechol amine uptake than 1-aminoindane | – | –
2 | NC1CCc2c1ccc(Cl)c2Cl (stereo not drawn) [4,5-dichloro-1-aminoindane] | – | 0.2 | 0.2
3 | NC1CCc2c(Cl)cccc21 (stereo not drawn) [4-Chloro-1-aminoindane hydrochloride, 4-chloro-1-aminoindane hydrochloride] | – | 0.759 | 0.757
4 | NC1CCc2cc(Cl)c(Cl)cc21 (stereo not drawn) [5,6-dichloro-1-aminoindane maleate] | – | 4.68 | 2.95
5 | NC1CCc2ccc(Cl)c(Cl)c21 (stereo not drawn) [6,7-dichloro-1-aminoindane] | – | 6.03 | 5.37
